Read-outs that look alike come from different tables or passages of the source.
Experiments:
[1] = tested on: phosphorylated 4E-BP1 Thr37/46 (p4E-BP1 Thr37/46), mTORC1 activity, PC3 cells; test: mTOR target engagement assay, immunofluorescent cell-based, p4E-BP1 Thr37/46 readout (mTORC1 activity); settings: Homo sapiens, read-out: p4E-BP1 Thr37/46 IC50
How it was run: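 PTEN-mutant PC3 prostate cells were treated with serially diluted compound in 5% FBS F12 medium (0.25% DMSO) for ninety minutes at 37° C, glyoxal-fixed, then immunostained overnight at 4° C for p4E-BP1 Thr37/46 with an Alexa Fluor 488 secondary. IC50 came from four-parameter fits of fluorescence, DMSO-only wells defining 100%.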

[2] = tested on: phosphorylated AKT Ser473 (pAKT S473), mTORC2 activity, PC3 cells; test: mTOR target engagement assay, immunofluorescent cell-based, pAKT S473 readout (mTORC2 activity); settings: Homo sapiens
How it was run: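 After blocking, cells were stained overnight at 4 °C with anti-pAKT S473 antibody, then a fluorescent secondary; inhibition was read as reduced fluorescence intensity.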

[3] = PC-3, PC3 cells, compound treatment ninety minutes at 37° C.

Row | Compound | IC50 [1, 3] | IC50 [2, 3] | IC50 ([1]; PC-3, Table 3-1, PC3 cells) | IC50 ([2]; PC-3, Table 3-1, PC3 cells) | also measured
1 | Nc1c(C2CC2)c([C@@H]2C[C@H]3CC[C@@H](C2)N3C(=O)c2nnc[nH]2)nc2c(-c3ccc(-c4ccccc4)nc3)cnn12 [Compound 4.1, ((1R,3a,5S)-3-(7-amino-6-cyclopropyl-3-(6-phenylpyridin-3-yl)pyrazolo[1,5-a]pyrimidin-5-yl)-8-azabicyclo[3.2.1]octan-8-yl)(4H-1,2,4-triazol-3-yl)methanone] | 0.001 to 0.1 µM | 0.001 to 0.1 µM |  |  | 
2 | CC(=O)c1c([C@@H]2C[C@H]3CC[C@@H](C2)N3C(=O)c2nnc[nH]2)nc2c(-c3ccc(-c4nc[nH]n4)nc3)cnn2c1N [Compound 1.1.91, 1-(3-(6-(1H-1,2,4-triazol-3-yl)pyridin-3-yl)-5-((1R,3s,5S)-8-(4H-1,2,4-triazole-3-carbonyl)-8-azabicyclo[3.2.1]octan-3-yl)-7-aminopyrazolo[1,5-a]pyrimidin-6-yl)ethanone] | 0.001 to 0.1 µM | 0.001 to 0.1 µM |  |  | 
3 | CS(=O)(=O)c1c([C@@H]2C[C@H]3CC[C@@H](C2)N3C(=O)c2coc(=O)[nH]2)nc2c(-c3ccc(-c4ccccc4)nc3)cnn2c1N [Compound 3.138, 4-((1R,3s,5S)-3-(7-amino-6-(methylsulfonyl)-3-(6-phenylpyridin-3-yl)pyrazolo[1,5-a]pyrimidin-5-yl)-8-azabicyclo[3.2.1]octane-8-carbonyl)oxazol-2(3H)-one] |  |  | 0.1 to 1 µM | 0.1 to 1 µM | 
4 | Cn1nnc(-c2ccc(-c3cnn4c(N)c(S(C)(=O)=O)c([C@@H]5C[C@H]6CC[C@@H](C5)N6C(=O)c5nnc[nH]5)nc34)cn2)n1 [Compound 3.42, ((1R,3a,5S)-3-(7-amino-3-(6-(2-methyl-2H-tetrazol-5-yl)pyridin-3-yl)-6-(methylsulfonyl)pyrazolo[1,5-a]pyrimidin-5-yl)-8-azabicyclo[3.2.1]octan-8-yl)(4H-1,2,4-triazol-3-yl)methanone] |  |  | 1 to 10 µM | 0.1 to 1 µM | 
5 | CC(=O)c1c([C@@H]2C[C@H]3CC[C@@H](C2)N3C(=O)c2nnc[nH]2)nc2c(-c3ccc(-c4cnn(C)c4)nc3)cnn2c1N [Compound 1.1.149, 1-(5-((1R,3s,5S)-8-(4H-1,2,4-triazole-3-carbonyl)-8-azabicyclo[3.2.1]octan-3-yl)-7-amino-3-(6-(1-methyl-1H-pyrazol-4-yl)pyridin-3-yl)pyrazolo[1,5-a]pyrimidin-6-yl)ethanone] | 0.001 to 0.1 µM | 0.001 to 0.1 µM |  |  | 
6 | CC(=O)c1c([C@@H]2C[C@H]3CC[C@@H](C2)N3C(=O)c2nnc[nH]2)nc2c(-c3ccc([C@H](C)O)nc3)cnn2c1N [Compound 7.34, 1-(5-((1R,3s,5S)-8-(4H-1,2,4-triazole-3-carbonyl)-8-azabicyclo[3.2.1]octan-3-yl)-7-amino-3-(6-((S)-1-hydroxyethyl)pyridin-3-yl)pyrazolo[1,5-a]pyrimidin-6-yl)ethanone] |  |  |  |  | IC50 ([1]; PC-3, Table 7-4, PC3 cells): 0.001 to 0.1 µM; IC50 ([2]; PC-3, Table 7-4, PC3 cells): 0.001 to 0.1 µM
7 | CC(=O)c1c([C@@H]2C[C@H]3CC[C@@H](C2)N3C(=O)c2nnc[nH]2)nc2c(-c3ccc(-n4cc(C)cn4)nc3)cnn2c1N [Compound 1.1.135, 1-(5-((1R,3s,5S)-8-(4H-1,2,4-triazole-3-carbonyl)-8-azabicyclo[3.2.1]octan-3-yl)-7-amino-3-(6-(4-methyl-1H-pyrazol-1-yl)pyridin-3-yl)pyrazolo[1,5-a]pyrimidin-6-yl)ethanone] | 0.001 to 0.1 µM | 0.001 to 0.1 µM |  |  | 
8 | [2H]C([2H])([2H])n1ccc(-c2ccc(-c3cnn4c(N)c(C(C)=O)c([C@@H]5C[C@H]6CC[C@@H](C5)N6C(=O)c5nnc[nH]5)nc34)cn2)n1 [Compound 1.1.82, 1-(5-((1R,3s,5S)-8-(4H-1,2,4-triazole-3-carbonyl)-8-azabicyclo[3.2.1]octan-3-yl)-7-amino-3-(6-(1-methyl-(D3)-1H-pyrazol-3-yl)pyridin-3-yl)pyrazolo[1,5-a]pyrimidin-6-yl)ethanone] | 0.1 to 1 µM | 0.1 to 1 µM |  |  | 
9 | CS(=O)(=O)c1c([C@@H]2C[C@H]3CC[C@@H](C2)N3c2nnn[nH]2)nc2c(-c3ccc(-c4ccccc4)nc3)cnn2c1N [Compound 3.18, 5-((1R,3s,5S)-8-(1H-tetrazol-5-yl)-8-azabicyclo[3.2.1]octan-3-yl)-6-(methylsulfonyl)-3-(6-phenylpyridin-3-yl)pyrazolo[1,5-a]pyrimidin-7-amine] |  |  | > 10 µM | > 10 µM | 
10 | CNC(=O)N1[C@@H]2CC[C@H]1C[C@H](c1nc3c(-c4ccc(-c5ccccc5)nc4)cnn3c(N)c1C(C)=O)C2 [Compound 1.1.39, (1R,3s,5S)-3-(6-acetyl-7-amino-3-(6-phenylpyridin-3-yl)pyrazolo[1,5-a]pyrimidin-5-yl)-N-methyl-8-azabicyclo[3.2.1]octane-8-carboxamide] | 0.001 to 0.1 µM | 0.001 to 0.1 µM |  |  | 
11 | COc1ccc(-c2ccc(-c3cnn4c(N)c(S(C)(=O)=O)c([C@@H]5C[C@H]6CC[C@@H](C5)N6C(=O)c5nnc[nH]5)nc34)cn2)s1 [Compound 3.35, ((1R,3s,5S)-3-(7-amino-3-(6-(5-methoxythiophen-2-yl)pyridin-3-yl)-6-(methylsulfonyl)pyrazolo[1,5-a]pyrimidin-5-yl)-8-azabicyclo[3.2.1]octan-8-yl)(4H-1,2,4-triazol-3-yl)methanone] |  |  | 0.001 to 0.1 µM | 0.001 to 0.1 µM | 
12 | COCc1c([C@@H]2C[C@H]3CC[C@@H](C2)N3C(=O)c2nnc[nH]2)nc2c(-c3ccc(-c4ccccc4)nc3)cnn2c1N [Compound 5.4, ((1R,3s,5S)-3-(7-amino-6-(methoxymethyl)-3-(6-phenylpyridin-3-yl)pyrazolo[1,5-a]pyrimidin-5-yl)-8-azabicyclo[3.2.1]octan-8-yl)(4H-1,2,4-triazol-3-yl)methanone] | 0.001 to 0.1 µM | 0.001 to 0.1 µM |  |  | 
13 | CC(=O)c1c([C@@H]2C[C@H]3CC[C@@H](C2)N3C(=O)CO)nc2c(-c3ccc(-c4cc(C)[nH]n4)nc3)cnn2c1N [Compound 1.1.96, 1-((1R,3s,5S)-3-(6-acetyl-7-amino-3-(6-(5-methyl-1H-pyrazol-3-yl)pyridin-3-yl)pyrazolo[1,5-a]pyrimidin-5-yl)-8-azabicyclo[3.2.1]octan-8-yl)-2-hydroxyethanone] | > 10 µM | > 10 µM |  |  | 
14 | CS(=O)(=O)c1c([C@@H]2C[C@H]3CC[C@@H](C2)N3C(=O)c2ccn[nH]2)nc2c(-c3cn[nH]c3)cnn2c1N [Compound 3.117, ((1R,3a,4S)-3-(7-amino-6-(methylsulfonyl)-3-(1H-pyrazol-4-yl)pyrazolo[1,5-a]pyrimidin-5-yl)-8-azabicyclo[3.2.1]octan-8-yl)(1H-pyrazol-5-yl)methanone] |  |  | > 10 µM | > 10 µM | 
15 | CNc1c(S(C)(=O)=O)c([C@@H]2C[C@H]3CC[C@@H](C2)N3C(=O)c2nnc[nH]2)nc2c(-c3ccc(-c4ccccc4)nc3)cnn12 [Compound 8.41, ((1R,3s,5S)-3-(7-(methylamino)-6-(methylsulfonyl)-3-(6-phenylpyridin-3-yl)pyrazolo[1,5-a]pyrimidin-5-yl)-8-azabicyclo[3.2.1]octan-8-yl)(4H-1,2,4-triazol-3-yl)methanone] |  |  |  |  | IC50 ([1]; PC-3, PC3 cells): 0.1 to 1 µM; IC50 ([2]; PC-3, PC3 cells): 0.001 to 0.1 µM
16 | COc1ccc(-c2ccc(-c3cnn4c(N)c(S(C)(=O)=O)c([C@@H]5C[C@H]6CC[C@@H](C5)N6C(=O)CO)nc34)cn2)cc1 [Compound 3.36, 1-((1R,3s,5S)-3-(7-amino-3-(6-(4-methoxphenyl)pyridin-3-yl)-6-(methylsulfonyl)pyrazolo[1,5-a]pyrimidin-5-yl)-8-azabicyclo[3.2.1]octan-8-yl)-2-hydroxyethanone] |  |  | 0.001 to 0.1 µM | 0.001 to 0.1 µM | 
